# According to paper PMC12123458, “Unraveling Small Molecule-Mediated Sirtuin 3 Activation at a Distinct Binding Site for Cardioprotective Therapies” (ACS Central Science, 2025):
# How the values were obtained:
# [1] = biological target: T1, SIRT5 (Homo sapiens, UniProt Q9NXA8); assay: Coupled enzymatic assay, succinylated CPS1-K537 substrate; format: biochemical; conditions: 100 μM
# T1 sequence (Q9NXA8 37-310): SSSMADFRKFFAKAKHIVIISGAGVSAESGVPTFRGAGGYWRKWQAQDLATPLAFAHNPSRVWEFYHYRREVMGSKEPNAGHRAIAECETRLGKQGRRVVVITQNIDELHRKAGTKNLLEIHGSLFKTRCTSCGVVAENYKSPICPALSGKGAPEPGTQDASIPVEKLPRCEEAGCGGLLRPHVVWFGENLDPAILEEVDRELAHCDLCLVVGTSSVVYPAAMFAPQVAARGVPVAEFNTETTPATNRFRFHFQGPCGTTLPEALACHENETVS
# Text: Additionally, we used surface plasmon resonance (SPR) to measure the binding of SKLB-11A to immobilized SIRT3. […] We next evaluated the selectivity of SKLB-11A for different SIRT family members. […] We next examined the functional specificity of SKLB-11A using coupled enzymatic assays with isoform-specific, physiologically relevant substrates: acetylated p53-K381 for SIRT1, acetylated α-tubulin-K25 for SIRT2, acetylated MnSOD-K122 for SIRT3, and succinylated CPS1-K537 for SIRT5 (Supplementary Table S3). […] Using Schrödinger molecular docking simulations, we assessed the binding interactions of SKLB-11A with SIRT isoforms.
# [2] = biological target: T2, SIRT3 L298G mutant (Homo sapiens, UniProt Q9NTG7, L298G); assay: BLI binding of SKLB-11A to mutant SIRT3 (L298G); conditions: read-out: dissociation constant, L298G mutant SIRT3
# T2 construct: made in house
# T2 sequence (Q9NTG7 1-399 L298G): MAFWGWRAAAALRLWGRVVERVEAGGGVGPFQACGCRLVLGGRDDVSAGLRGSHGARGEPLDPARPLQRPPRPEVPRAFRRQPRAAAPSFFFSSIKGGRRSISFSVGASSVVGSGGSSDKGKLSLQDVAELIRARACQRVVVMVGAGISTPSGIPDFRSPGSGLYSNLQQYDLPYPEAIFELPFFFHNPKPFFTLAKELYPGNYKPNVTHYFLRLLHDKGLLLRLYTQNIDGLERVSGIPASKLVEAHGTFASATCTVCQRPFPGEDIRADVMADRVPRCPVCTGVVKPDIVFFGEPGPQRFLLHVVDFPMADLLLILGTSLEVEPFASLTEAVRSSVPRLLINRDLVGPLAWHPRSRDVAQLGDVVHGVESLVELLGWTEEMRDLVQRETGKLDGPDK
# Protocol: SIRT3 protein at a concentration of 10 mg/mL was incubated with SKLB-11A (200 mM) in a mole ratio of 1:5 on ice for 1–3 h. The mixture was then centrifuged at 4 °C for 10 min, and the supernatant was used for crystallization. The precipitant solution consisted of 0.2 M Li2SO4, 1.0 M (NH4)2SO4, and 0.1 M Tris, at pH 7.5. Crystals emerged after approximately 3 days at 16 °C on a sitting-drop plate. The crystals were subsequently transferred to a cryoprotectant solution containing 20% glycerol and were flash-cooled in a nitrogen gas stream at 100 K for synchrotron radiation X-ray diffraction data collection. Site-directed mutagenesis. L298G Primer forward: 5′-[…]-GAACCGggc[…][…]-3′; reverse: 5′-gccCGGTT[…]-AAAACGA-3′; Site-directed mutagenesis was conducted using 2 x Phanta Flash Master Mix (Vazyme, P510). The mutated plasmid was sequenced by Sangon Biotech (Shanghai, China).
# Binding kinetics of SIRT3 with various compounds were quantified using SSA biosensors on an Octet Red96 system (ForteBio). The assays occurred in 96-well plates, recording wavelength shifts in real-time. Ambient temperature was maintained at 25 °C, with plate agitation at 1000 rpm, and a reaction volume of 200 μL per well. SIRT3 protein and test compounds were prepared in phosphate-buffered saline (PBS, pH 7.4). […]
# [3] = system: acetylated MnSOD (K68 and K122) in H9c2 cells; assay: Western blot of MnSOD, SIRT3 and acetylated MnSOD in H9c2 cells; format: cell-based; conditions: 24 h
# Protocol: Proteomic analysis was conducted on H9c2 cells and murine cardiac tissues. Protein lysates were resolved via SDS-PAGE and transferred onto PVDF membranes. […] After washing, membranes were probed with secondary antibodies for 1 h at room temperature. Detection was facilitated by an ECL kit, with densitometry performed using ImageJ software to quantify protein expression, normalized against controls. The antibodies employed included: anti-SIRT3 (2627, Cell Signaling Technology), anti-acetylated lysine (9441, CST), anti-Ac.K68-MnSOD2 (ab137037, Abcam), anti-Ac.K122-MnSOD2 (ab214675, Abcam), anti-MnSOD2 (13141, CST), anti-LC3B (3868, CST), anti-p62 (8025, CST), anti-PINK1 (6946, CST), anti-Parkin (4211, CST), and anti-β-actin (ab8226, Abcam).
structure (smiles),measurement,setting,value
"COC(=O)c1c(N)n(Cc2ccc(F)cc2)c2nc3ccccc3nc12 [SKLB-11A, Methyl 2-amino-1-(4-fluorobenzyl)-1H-pyrrolo[2,3-b]quinoxaline-3-carboxylate]",effect on basal SIRT5 desuccinylation activity,[1],no statistically significant effects
same,Kd,[2],167 µM
same,SIRT3 protein levels,[3],did not alter SIRT3 protein levels
same,deacetylation of MnSOD at K122 and K68,[3],induced deacetylation at K122 and K68
